Test system: nerve growth factor (NGF) in C6 glioma cells
Experiment: Ability to promote increase of nerve growth factor (NGF) produced in cell medium, ELISA
Type: cell-based, Rat
Conditions: 10 μM, 24 hours, FIG. 22
Description: Rat astrocyte-derived C6 glioma cells were dispensed in DMEM culture solution at a concentration of 1×10^5 cells/well in a 24 well plate and stabilized overnight, and then treated with the compounds of the present invention at a concentration of 10 μM, and reacted in a 37° C. incubator for 24 hours. The treated medium was collected and centrifuged, and then absorbance was measured using an enzyme linked immunoassay kit (ELISA kit).

Question: For COc1cc2c(c(O)c1Br)CN(CCc1ccc(C(F)(F)F)cc1)C2=O [Formula 6, 5-bromo-4-hydroxy-6-methoxy-2-(4-(trifluoromethyl)phenethyl)isoindolin-1-one], which “nerve growth factor produced in the cell medium” value (“nerve growth factor produced” for short) is on record?
Answer: The value was “significantly excellent”.

Question: Which “nerve growth factor produced” value does the source give for C=Cc1c(OC)cc2c(c1OCOC)CN(CCc1ccc(OC)cc1)C2=O [Formula 13, 6-methoxy-4-(methoxymethoxy)-2-(4-methoxyphenethyl)-5-vinylisoindolin-1-one] here?
Answer: The value was “significantly excellent”.

Question: C=Cc1c(OC)cc2c(c1O)CN(CCc1ccc(C(F)(F)F)cc1)C2=O [Formula 20, 4-hydroxy-6-methoxy-2-(4-(trifluoromethyl)phenethyl)-5-vinylisoindolin-1-one] was tested. Which “nerve growth factor produced” value did it give?
Answer: The value was “significantly excellent”.

Question: For COc1cc2c(c(O)c1Br)CN(CCc1ccc(F)cc1)C2=O [Formula 1, 5-bromo-2-(4-fluorophenethyl)-4-hydroxy-6-methoxyisoindolin-1-one], which “nerve growth factor produced” value is on record?
Answer: Its value is “significantly excellent”.

Test system: NO production in BV2 cells (microglia)
Experiment: NO production in LPS-stimulated BV2 cells (Griess reaction), antineuritic activity
Type: cell-based
Conditions: 10 μM, 100 ng/ml LPS for 24 hours, nitrite by Griess reaction, FIG. 26
Description: BV2 cells (microglia) were dispensed in DMEM culture solution at a concentration of 6×10^4 cells/well in a 96 well plate, and then treated with the compounds of the present invention at a concentration of 10 μM, and incubated for 24 hours. After 24 hours, each sample was treated with a concentration of 10 μM, reacted for 1 hour, and then stimulated with 100 ng/ml of LPS for 24 hours. The production of nitrite, a soluble oxidation product of NO (nitric oxide), was measured in the culture medium through the Griess reaction.

Question: How did the “NO production compared to untreated control group” value turn out when COCOc1c(Br)c(OC)cc2c1CN(CCc1ccc(OC)cc1)C2=O [Formula 12, 5-bromo-6-methoxy-4-(methoxymethoxy)-2-(4-methoxyphenethyl)isoindolin-1-one] was run?
Answer: The value was “significantly reduced”.

Question: For COc1cc2c(c(O)c1CCCO)CN(CCc1ccccc1)C2=O [Formula 17, 4-hydroxy-5-(3-hydroxypropyl)-6-methoxy-2-phenethyl isoindolin-1-one], which “NO production compared to untreated control group” value is on record?
Answer: Its value is “significantly reduced”.

Question: With C=Cc1c(OC)cc2c(c1O)CN(CCc1ccc(OC)cc1)C2=O [Formula 21] as the compound, how does the “NO production compared to untreated control group” value read?
Answer: The value was “significantly reduced”.

Question: Which “NO production compared to untreated control group” value does the source give for COc1ccc(CCN2Cc3c(cc(OC)c(CCO)c3O)C2=O)cc1 [Formula 15, 4-hydroxy-5-(2-hydroxyethyl)-6-methoxy-2-(4-methoxyphenethyl)isoindolin-1-one] here?
Answer: Its value is “significantly reduced”.

Question: With COc1cc2c(c3c1CCO3)CN(CCc1ccccc1)C2=O [Formula 19, 4-methoxy-7-phenethyl-7,8-dihydro-2H-furo[2,3-e]isoindole-6(3H)-1] as the compound, how does the “NO production compared to untreated control group” value read?
Answer: The value was “significantly reduced”.

Question: How did the “NO production compared to untreated control group” value turn out when C=Cc1c(OC)cc2c(c1OCOC)CN(CCc1ccc(OC)cc1)C2=O [Formula 13, 6-methoxy-4-(methoxymethoxy)-2-(4-methoxyphenethyl)-5-vinylisoindolin-1-one] was run?
Answer: The value was “significantly reduced”.

Source: patent publication US20230331672A1, “6-METHOXY-2-PHENETHYL ISOINDOLINE-1-ONE DERIVATIVE AND COMPOSITION FOR TREATING NEUROLOGICAL DISORDERS, COMPRISING SAME” (CNG BIO CO., LTD., priority 2020, published 2023)
